Measured values as given in PubChem BioAssay (NCI).
Several values for one entry are separate records, joined by “and”; a condition that tells them apart may be missing. Equal entries are not always repeated.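 Five concentrations, 48 hours, 96-well plates. GI50: concentration for 50% inhibition of growth. At the TGI there is no net growth.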

Assays:
Experiment in all cases: NCI anticancer screen, dose series, 48 h
[1] = tested on: MDA-N
[2] = tested on: UACC-62 melanoma
[3] = tested on: SK-MEL-2 melanoma
[4] = tested on: RXF 393 renal
[5] = tested on: 786-0 renal
[6] = tested on: SK-OV-3 ovarian
[7] = tested on: KM12 colon
[8] = tested on: SK-MEL-28 melanoma
[9] = tested on: A549 NSCLC
[10] = tested on: NCI-H226 lung
[11] = tested on: K-562 leukemia

Compound: C=CCN1C(=O)/C(=C/c2ccc(C)cc2)N=C1SC1OC(COC(C)=O)C(OC(C)=O)C(OC(C)=O)C1OC(C)=O (configuration not stated)
- TGI [1]: > 100 µM
- GI50 [2]: 3.83 µM and 37.1 µM
- TGI [2]: > 100 µM
- GI50 [3]: > 100 µM and 38.3 µM
- TGI [3]: > 100 µM
- TGI [4]: > 39.5 µM and 61.6 µM
- TGI [5]: > 100 µM
- GI50 [6]: > 100 µM and 28.9 µM
- TGI [6]: > 100 µM and 85.4 µM
- TGI [7]: > 100 µM and 17.9 µM
- TGI [8]: > 100 µM
- TGI [9]: > 100 µM
- GI50 [10]: > 100 µM and 20.9 µM
- TGI [10]: > 100 µM and 85.6 µM
- GI50 [11]: > 73.9 µM and 29.9 µM
- TGI [11]: > 100 µM

Compound: O=C1C=CC(=O)C(CNc2ccc(C(=O)OCc3ccccc3)cc2)=C1
- TGI [1]: 19.5 µM
- TGI [2]: 22.6 µM
- TGI [3]: 30 µM
- TGI [4]: 8.54 µM
- TGI [5]: 13.6 µM
- TGI [6]: 30.8 µM
- TGI [7]: 23.4 µM
- TGI [8]: 17.4 µM
- TGI [9]: 32.1 µM
- TGI [10]: 28 µM
- TGI [11]: > 100 µM

Compound: Clc1ccc(/C(=C\c2ccccc2)Cn2ccnc2)cc1
- TGI [1]: 39 µM
- TGI [2]: 35.8 µM
- TGI [3]: 30.3 µM
- TGI [4]: 42.2 µM
- TGI [5]: 38.5 µM
- TGI [6]: 36.3 µM
- TGI [7]: 20.7 µM
- TGI [8]: 38.1 µM
- TGI [9]: 49.4 µM
- TGI [10]: 33.1 µM
- TGI [11]: > 100 µM

Compound: CC1(C)OC2COC3([C@@H]4OC(C)(C)O[C@@H]4CO)OC(C)(C)OC3C2O1 (some centres not stated)
- TGI [1]: > 100 µM
- TGI [2]: > 100 µM
- TGI [3]: > 100 µM
- TGI [4]: > 100 µM
- TGI [5]: > 100 µM
- TGI [7]: > 100 µM
- TGI [8]: > 100 µM
- TGI [9]: > 100 µM
- TGI [10]: > 100 µM
- TGI [11]: > 100 µM

Compound: CC(C)[Si](OC/C(=C/COC(C)(C)C)[C@H]1CC=C(C(=O)c2ccccc2N2CN(C)C(=O)N(C)C2)C1)(C(C)C)C(C)C
- TGI [1]: 4.62 µM
- TGI [2]: 23.3 µM
- TGI [3]: 28.9 µM
- TGI [4]: 17.5 µM
- TGI [5]: 17.9 µM
- TGI [6]: 31.2 µM
- TGI [7]: 44.4 µM
- TGI [8]: 12.9 µM
- TGI [9]: 23 µM
- TGI [10]: 28.9 µM
- TGI [11]: > 36.4 µM

Compound: Cc1cc(NS(=O)(=O)c2ccc(NC(NC(=O)C(C(F)(F)F)C(F)(F)F)(C(F)(F)F)C(F)(F)F)cc2)no1
- TGI [1]: > 100 µM
- TGI [2]: > 100 µM
- TGI [3]: > 100 µM
- TGI [4]: > 100 µM
- TGI [5]: > 100 µM
- TGI [6]: > 100 µM
- TGI [7]: > 100 µM
- TGI [8]: > 100 µM
- TGI [9]: > 100 µM
- TGI [10]: > 100 µM
- TGI [11]: > 100 µM

Compound: O=[N+]([O-])c1cccc2c(N=Nc3ccc4ccccc4c3O)c(O)cc(S(=O)(=O)O)c12
- TGI [1]: > 100 µM
- TGI [2]: > 100 µM
- TGI [3]: > 100 µM
- TGI [4]: > 100 µM
- TGI [5]: > 100 µM
- TGI [6]: > 100 µM
- TGI [7]: > 100 µM
- TGI [8]: > 100 µM
- TGI [9]: > 100 µM
- TGI [10]: > 100 µM
- TGI [11]: > 100 µM

Compound: COc1nc2c(N3CCCC3)nc(N3CCNCC3)nc2nc1NCc1ccccc1
- TGI [1]: 2.45 µM
- TGI [2]: 3.29 µM
- TGI [3]: 3.11 µM
- TGI [4]: 2.73 µM
- TGI [5]: 2.66 µM
- TGI [6]: 4.68 µM
- TGI [7]: 4.68 µM
- TGI [8]: 3.92 µM
- TGI [9]: 5.34 µM
- TGI [10]: 7.1 µM
- TGI [11]: 3.58 µM

Compound: O=C1C(C(O)(C(F)(F)F)C(F)(F)F)CCC1C(O)(C(F)(F)F)C(F)(F)F (configuration not stated)
- TGI [1]: > 81.8 µM
- TGI [2]: > 100 µM
- TGI [3]: 11 µM
- TGI [4]: 26 µM
- TGI [5]: > 38.8 µM
- TGI [6]: > 100 µM
- TGI [7]: 37.3 µM
- TGI [8]: > 73.2 µM
- TGI [9]: > 65.4 µM
- TGI [10]: 4.44 µM
- TGI [11]: > 100 µM

Compound: COP(=O)(OC)C(Nc1ccc(Cc2ccc(NC(c3ccco3)P(=O)(OC)OC)cc2)cc1)c1ccco1 (configuration not stated)
- TGI [1]: > 100 µM
- TGI [2]: 50.5 µM
- TGI [3]: 35.7 µM
- TGI [4]: 19.9 µM
- TGI [5]: > 100 µM
- TGI [6]: 73.6 µM
- TGI [7]: > 100 µM
- TGI [8]: > 100 µM
- TGI [9]: > 100 µM
- TGI [10]: > 100 µM
- TGI [11]: > 100 µM

Compound: CC1=NNC(=O)C1C1CC(c2c[nH]c3ccccc23)=NN=C1Cl (configuration not stated)
- TGI [1]: > 100 µM
- TGI [2]: > 100 µM
- TGI [3]: > 100 µM
- TGI [4]: > 100 µM
- TGI [5]: > 100 µM
- TGI [6]: > 100 µM
- TGI [7]: 69.3 µM
- TGI [8]: > 100 µM
- TGI [9]: > 100 µM
- TGI [10]: > 100 µM
- TGI [11]: 88.6 µM

Compound: CC(C)N1CN(c2ccccc2)C2(CCN(CCCC(=O)c3ccc(F)cc3)CC2)C1=O
- TGI [1]: 36.6 µM
- TGI [2]: 38.7 µM
- TGI [3]: 28.3 µM
- TGI [4]: > 82.2 µM
- TGI [5]: > 60.7 µM
- TGI [6]: > 100 µM
- TGI [7]: 42.1 µM
- TGI [8]: 36.7 µM
- TGI [9]: > 100 µM
- TGI [10]: 46.4 µM
- TGI [11]: 69.7 µM

Compound: O=[N+]([O-])c1cc(Cl)ccc1Sc1ccccc1
- TGI [1]: > 100 µM
- TGI [2]: > 100 µM
- TGI [3]: > 100 µM
- TGI [4]: > 100 µM
- TGI [5]: > 100 µM
- TGI [6]: > 100 µM
- TGI [7]: > 100 µM
- TGI [8]: > 100 µM
- TGI [9]: > 100 µM
- TGI [10]: > 100 µM
- TGI [11]: > 100 µM

Compound: CCOP(=O)(OCC)OC1CC(n2cc(C)c(=O)n(C)c2=O)OC1CO[Si](C)(C)C(C)(C)C (configuration not stated)
- TGI [1]: > 100 µM
- TGI [2]: > 100 µM
- TGI [3]: > 100 µM
- TGI [4]: > 100 µM
- TGI [5]: > 100 µM
- TGI [6]: > 100 µM
- TGI [7]: > 100 µM
- TGI [8]: > 100 µM
- TGI [9]: > 100 µM
- TGI [10]: > 100 µM
- TGI [11]: > 100 µM

Compound: C[C@H]1[C@H](C)CC[C@]2(C(=O)OC3OC(CO)C(O)C(O)C3O)CC[C@]3(C)C(=CC[C@@H]4[C@@]5(C)C[C@H]6OC(=O)c7cc(O)c(O)c(O)c7-c7c(cc(O)c(O)c7O)C(=O)O[C@@H]6C(CO)(CO)[C@@H]5CC[C@]43C)[C@H]12 (some centres not stated)
- TGI [1]: 72.7 µM
- TGI [2]: > 100 µM
- TGI [3]: > 100 µM
- TGI [4]: > 100 µM
- TGI [5]: > 52.2 µM
- TGI [6]: > 100 µM
- TGI [7]: > 100 µM
- TGI [8]: > 100 µM
- TGI [9]: > 100 µM
- TGI [10]: > 100 µM
- TGI [11]: > 100 µM

Compound: CN(C)c1ccc(Cc2cc3c(O)ccc(O)c3cc(Cc3ccc(N(C)C)cc3)c2=O)cc1
- TGI [1]: 41 µM
- TGI [2]: 65.9 µM
- TGI [3]: > 68.9 µM
- TGI [4]: 31.9 µM
- TGI [5]: 32.1 µM
- TGI [6]: > 100 µM
- TGI [7]: 40 µM
- TGI [8]: 37.4 µM
- TGI [9]: > 77.1 µM
- TGI [10]: 56.2 µM
- TGI [11]: 10.6 µM

Compound: COC(=O)C1(O)C(c2ccccc2)=NC2(C)CCCC21 (configuration not stated)
- TGI [1]: > 100 µM
- TGI [2]: > 100 µM
- TGI [3]: > 100 µM
- TGI [4]: > 100 µM
- TGI [5]: > 100 µM
- TGI [6]: > 100 µM
- TGI [7]: > 100 µM
- TGI [8]: > 100 µM
- TGI [9]: > 100 µM
- TGI [10]: > 100 µM
- TGI [11]: > 100 µM

Compound: COC(=O)N1N=C(c2ccccc2)C1c1ccccc1 (configuration not stated)
- TGI [1]: > 100 µM
- TGI [2]: 63.3 µM
- TGI [3]: > 100 µM
- TGI [4]: > 100 µM
- TGI [5]: > 100 µM
- TGI [6]: > 100 µM
- TGI [7]: > 100 µM
- TGI [8]: > 100 µM
- TGI [9]: > 100 µM
- TGI [10]: 77.1 µM
- TGI [11]: 72.7 µM
